Experimental data as given in PMC4286001 (Journal of Clinical Pharmacy and Therapeutics, 2013).
Like-named read-outs stand apart in the source and are kept apart here.

Key:
[1] = cited from earlier work
[2] = format: in vivo, human; conditions: for V/F, geometric mean (%CV): single oral 45 mg tablet
[3] = Safety and tolerability of single-dose ponatinib 45 mg in healthy subjects; format: in vivo, human

SMILES | Effect of food intake on PK [1] | Time at which maximum mean concentrations were reached ([2]; across high-fat, low-fat and fasted regimens, single 45-mg tablet) [h] | Quantifiability of ponatinib in plasma ([2]; all three treatment regimens, lower limit 0·5 ng/mL) | V/F, geometric mean (%CV) ([2]; fasted) | V/F, geometric mean (%CV) ([2]; high-fat meal) | V/F, geometric mean (%CV) ([2]; low-fat meal) | Time post-dose at which maximum plasma concentration was observed ([2]; overall, fasting, high-fat and low-fat) [h] | Subjects with AEs at least possibly related to treatment, n (%) ([3]; 24 subjects, all regimens) | Severe AEs ([3]; all regimens) | Treatment-related increased lipase levels ([3]; all regimens) | Vital signs, ECG parameters or physical examinations ([3]; all regimens) | High triacylglycerol lipase levels ([3]; clinically significant abnormality) | Tolerability ([3]; healthy subjects, regardless of food intake regimen) | Clinically significant abnormalities (laboratory), number ([3]; in a total of five subjects)
Cc1nc(Nc2ncc(C(=O)Nc3c(C)cccc3Cl)s2)cc(N2CCN(CCO)CC2)n1 [dasatinib] | unaffected by food intake | – | – | – | – | – | – | – | – | – | – | – | – | –
Cc1ccc(C(=O)Nc2ccc(CN3CCN(C)CC3)c(C(F)(F)F)c2)cc1C#Cc1cnc2cccnn12 [ponatinib, 3-[2-(imidazo[1,2-b]pyridazin-3-yl)ethynyl]-4-methyl-N-{4-[(4-methylpiperazin-1-yl)methyl]-3-(trifluoromethyl)phenyl}benzamide] | – | 5 to 6 | quantifiable through the 96-h sampling interval | 1242 (30·0) L | 1104 (28·8) L | 1278 (37·6) L | ~6 | 10 (41·7%) subjects | no severe AEs | three | No clinically significant abnormalities | three | generally well tolerated | five
